Read-outs that look alike come from different tables or passages of the source.
Legend:
[1] = tested on: Tox21 assays; assay: Re-evaluated Tox21 data (Adamovsky et al.), REPBPA and SRbaseline; conditions: for SRbaseline: Specificity Ratio;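 as to all read-outs here: published Tox21 results reanalysed with a revised model predicting baseline toxicity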
Description: We also reanalyzed the Tox21 data of Adamovsky et al. with the updated baseline toxicity prediction model (Table S2).

[2] = 15 min
Description: The mixtures were adjusted to a final volume of 100 μL with acetonitrile (ACN). The reaction mix was incubated for 15 min at 30 °C and 1000 rpm on a Bioshake iQ orbital shaker from QInstruments (Jena, Germany). Additionally, a mixture without test compounds was prepared as a control. Subsequently, 10 μL of the reaction mixture was transferred into a conical dosing vial and evaporated under a nitrogen flow.
For chemical analysis, 10 μL of the reaction mixture was concentrated under vacuum (CentriVap, Labconco, Kansas City, MO, USA), diluted to 1 mg/L in ACN or ethyl acetate. The chemical analysis of the reaction mixtures was performed using liquid chromatography (LC) and gas chromatography (GC) coupled with various detection techniques, preferably Multiple Reaction Monitoring (MRM). Data acquisition and processing were carried out using the software MassHunter. Quantification was based on external calibrations.
The Cparent-Ratio quantifies the extent of oxidation of the parent compound after the abiotic CYP reaction. It was calculated as the ratio of the parent compound concentration after oxidation (C parent, after oxidation) to its concentration before oxidation (C parent, before oxidation) as shown in eq . […] 8 Cparent‐Ratio=Cparent,after oxidation/Cparent,before oxidation

[3] = tested on: Tox21 assays; conditions: cited from earlier work
[4] = tested on: PPARγ; parameters: method as in Crosthwait et al. 2025; Sun et al. 2025; conditions: ref Crosthwait et al. 2025; Sun et al. 2025; cited from earlier work
[5] = tested on: ERα; conditions: cited from earlier work
[6] = tested on: ERα; assay: Literature ERα reporter gene assays (comparison); type: cell-based; conditions: for EC10, approx.: in M (unit assumed)
Description: S5.4: Comparison with literature data for ERα reporter gene assays
To improve data comparability with our own results we converted reported EC₅₀ to EC₁₀ by dividing by 9, which is the ratio for log-logistic concentration-response curves with a hillslope of 1 (Figure S9a). Additionally, REPBPA values were calculated to enable a more consistent evaluation. Methodological differences between studies must be considered, as Reiniger et al.24 used the YES assay, while Goksøyr et al.25 applied ERα from fish (Figure S9b).
Cyan symbols highlight the ER-UAS-bla GripTite (this study and Tox21GenBLA).
(1 picture or pasted object on this page, not shown here)

[7] = tested on: HEK293H, HEK293T, H4IIe, MCF7 and SH-SY5Y cells; conditions: for cytotoxicity,median REPBPA,IC10: median IC10 relative to BPA; for IC10,Median (M): median cytotoxicity of all cell lines; for IC10, median: median cytotoxicity over all cell lines
Description: Cell culture conditions and bioassay protocols including response detection are provided in Text S2.1–2.4 and Table S3. − Cell viability was determined from cell confluency using an IncuCyte S3 Live-Cell Analysis System (Sartorius AG, Essen, Germany) before and after exposure, except for SH-SY5Y cells (live–dead staining with Nuclear Green LcS1 and propidium iodide, Abcam, UK). For metabolic activation experiments, cell viability was assessed using the ToxBLAzer DualScreen Kit (Thermo Fisher Scientific) to capture the remaining toxicity in ERα-UAS-bla GripTite after treatment with the aCYP catalyst (details in Text S2.4).
For ARE, the concentration that triggered an induction ratio of 1.5 (ECIR1.5) was used as the benchmark value, as detailed in Text S2.5. IC10 values also served as a threshold for data analysis in all assays; only concentrations below IC10 were considered when deriving EC10 or ECIR1.5.
TR indicates whether the cytotoxicity is triggered by specific toxicity mechanisms (TR ≥ 10) or not (0.1< TR< 10). 3 TR=IC10,baseline/IC10 We measured the cytotoxicity of BPA and its alternatives in HEK293H (PPARγ), HEK293T (ERα), H4IIe (AhR CALUX), MCF7 (ARE/MMP), and differentiated SH-SY5Y cells (Table S6). […]
medium, supplemented with 2% B-27 Supplement and 2 mM GlutaMAX Supplement. SH - SY5Y cells were differentiated with 10 µM all-trans retinoic acid prior to the assay.
S2.2: Cell Seeding and Incubation. For all bioassays, cell suspensions in the respective assay medium were dispensed into each well of 384-well plates using a MultiFlo Dispenser (Biotek, (now Agilent), Winooski, VT, U.S.). After seeding, the plates were incubated at 37° C and 5% CO₂ for […]. The final cell densities and plate types were as follows: Black poly-D-lysine […]
6500 cells/well, ERα: 5000 cells/well. White 384-well plates with a clear bottom (Product No.
NYC, U.S.) for AhR: 3250 cells/well. Black Collagen I coated plates were used (Product No.
S2.3: Chemical Dosing and Assay Analysis Procedures. The dosing procedure and high-throughput assay workflow have been described in detail before. 9 The dosing concentrations […]
Stock solutions were then either added directly to the respective cell culture medium or evaporated under nitrogen, followed by replenishment with fresh medium. The final solvent content in each well was kept below 1% for methanol, 0% for acetonitrile.
Dosing plates were prepared as 11 -step serial dilutions using a Hamilton Microlab Star robotic system (Hamilton, Bonaduz, Switzerland), and chemicals were dosed in duplicates by transferring 10 μL twice from the dosing plates to the cell plates . After quantifying cell confluency as described in S2. 4., the exposed cells were incubated at 37° C and 5% CO₂ for an additional 24 h. All chemicals were tested in all assays with at least three independent […]
S2.4: Cell Viability Measurement s and bioanalytical protocols . The confluency as a measure of cell viability was determined with an IncuCyte S3 Live -Cell Analysis System (Sartorius AG, Essen, Germany). With this method the confluency of cells in a microscopy image are normalized to control wells without cells and compared before and after 24 hours of exposure.
This method has been described previously 13. Cell viability of SH-SY5Y cells was measured […]
propidium iodide (PI, Abcam, Cambridge, U.K.).14 Nuclear Green LCS1 is a membrane-permeable dye that stains the nuclei of all cells, whereas PI only enters cells with compromised membrane integrity (non-viable cells). After staining, live cells show green nuclei without red fluorescence, while dead cells display both green and red nuclear fluorescence due to PI […]
intercalation. Cell viability was calculated as the proportion of green-only nuclei relative to the […]
For experiments with the preceding aCYP activation, ERα cell viability was additionally calculated from the readout of the ToxBLAzer reagent. The ToxBLAzer assay was conducted following the manufacturer's instructions (Thermo Fisher, Waltham, MA, U.S.).13 Fluorescence

[8] = experimental, cited from earlier work
[9] = TOX21_AR_LUC_MDAKB2_Antagonist_0,5nM_R1881, Relative Effect Potency
[10] = TOX21_AR_LUC_MDAKB2_Antagonist_0,5nM_R1881
[11] = TOX21_CAR_Agonist, Relative Effect Potency
[12] = TOX21_CAR_Antagonist, Relative Effect Potency
[13] = TOX21_PPARg_BLA_antagonist_ratio
[14] = Tox21BLA, ref Adamovsky et al. 2024
[15] = Tox21Luc, ref Adamovsky et al. 2024
[16] = TOX21_AR_LUC_MDAKB2_Antagonist_0,5nM_R1881, re-evaluated Tox21 data, ref Adamovsky et al 2024
[17] = TOX21_CAR_Agonist, re-evaluated Tox21 data, ref Adamovsky et al 2024
[18] = TOX21_CAR_Antagonist, re-evaluated Tox21 data, ref Adamovsky et al 2024
[19] = TOX21_PPARg_BLA_antagonist_ratio, re-evaluated Tox21 data, ref Adamovsky et al 2024
[20] = estrogen receptor from Atlantic cod (Gadus morhua), ref Goksøyr et al 2024
[21] = Atlantic cod estrogen receptor, approximated from literature EC50, ref Goksøyr et al 2024
[22] = Atlantic cod estrogen receptor, ref Goksøyr et al 2024
[23] = approximated from literature EC50, ref Pelch et al 2019
[24] = approximated from literature EC50, ref Reiniger et Oehlmann 2024
[25] = approximated from literature values, ref Kojima et al 2019
[26] = relative estrogenic potency vs BPA, ref Kojima et al 2019
[27] = relative estrogenic potency vs BPA, ref Pelch et al 2019
[28] = relative estrogenic potency vs BPA, ref Reiniger et Oehlmann 2024

Oc1ccc(C(c2ccc(O)cc2)(C(F)(F)F)C(F)(F)F)cc1 [BPAF, 4,4'-(1,1,1,3,3,3-Hexafluoropropane-2,2-diyl)diphenol]
REPBPA [1, 9]: 0.83 | SRbaseline [1, 10]: 22.15 | REPBPA [1, 11]: 0.26 | SRbaseline ([1]; TOX21_CAR_Agonist): 12.10 | REPBPA [1, 12]: 1.29 | SRbaseline ([1]; TOX21_CAR_Antagonist): 153.1 | SRbaseline [1, 13]: 11.28 | REPBPA [1, 14]: 2.86E+00 | REPBPA [1, 15]: 1.23E+00 | % Loss [2]: -9% | EC10 [3, 16]: 2.92e-06 M | EC10 [3, 17]: 5.35e-06 M | EC10 [3, 18]: 4.23e-07 M | EC10 [3, 19]: 5.75e-06 M | EC10 [3, 14]: 2.07E-07 | EC10 [3, 15]: 1.10E-08 | PPARγ transactivation reported in the literature [4]: No agonism was detected | EC50 [5, 20]: 230 nM | EC50 ([5]; ref Kojima et al 2019): 390 nM | EC50 ([5]; ref Pelch et al 2019): 130 nM | Efficacy % ([5]; ref Pelch et al 2019): 91.50% | EC50 ([5]; ref Reiniger et Oehlmann 2024): 434 nM | Efficacy % ([5]; ref Reiniger et Oehlmann 2024): 8.21E+01% | REPBPA,ERα reported in the literature ([5]; ref Text S5.4, Tables S2 and S7): 3–5 | EC10, approx. [6, 21]: ~2.56E-08 | REPBPA [6, 22]: 8.26E+00 | EC10, approx. [6, 23]: ~1.44E-08 | EC10, approx. [6, 24]: ~4.82E-08 | EC10, approx. [6, 25]: ~4.30E-08 | REPBPA [6, 26]: 8.49E-01 | REPBPA [6, 27]: 9.23E+00 | REPBPA [6, 28]: 5.21E+00 | cytotoxicity,median REPBPA,IC10 [7]: 3.07 | IC10,Median (M) [7]: 2.28 × 10^–5 M | IC10, median [7]: 22800 nM

CCC(C)(c1ccc(O)cc1)c1ccc(O)cc1 [BPB, 4,4'-(Butane-2,2-diyl)diphenol]
REPBPA ([1]; ATG_NRF2_ARE_CIS_up, Relative Effect Potency): 17.53 | SRbaseline ([1]; ATG_NRF2_ARE_CIS_up): 112.9 | REPBPA [1, 9]: 0.94 | SRbaseline [1, 10]: 18.87 | REPBPA [1, 11]: 1.20 | SRbaseline ([1]; TOX21_CAR_Agonist): 42.52 | REPBPA [1, 12]: 7.88 | SRbaseline ([1]; TOX21_CAR_Antagonist): 704.7 | REPBPA [1, 14]: 3.63E+00 | REPBPA [1, 15]: 1.63E+00 | % Loss [2]: 12% | Cparent-Ratio Mean [2]: 0.88 | Cparent-Ratio Rep.1 [2]: 0.80 | Cparent-Ratio Rep.1 % [2]: 79.66% | Cparent-Ratio Rep.2 [2]: 0.96 | Cparent-Ratio Rep.2 % [2]: 96.18% | EC10 ([3]; ATG_NRF2_ARE_CIS_up, re-evaluated Tox21 data, ref Adamovsky et al 2024): 4.31e-07 M | EC10 [3, 16]: 2.58e-06 M | EC10 [3, 17]: 1.15e-06 M | EC10 [3, 18]: 6.91e-08 M | EC10 [3, 14]: 1.63E-07 | EC10 [3, 15]: 2.15E-08 | PPARγ transactivation reported in the literature [4]: No agonism was detected | EC50 [5, 20]: 1600 nM | EC50 ([5]; ref Kojima et al 2019): 74 nM | EC50 ([5]; ref Pelch et al 2019): 320 nM | Efficacy % ([5]; ref Pelch et al 2019): 115.70% | EC50 ([5]; ref Reiniger et Oehlmann 2024): 1680 nM | Efficacy % ([5]; ref Reiniger et Oehlmann 2024): 9.23E+01% | EC10, approx. [6, 21]: ~1.78E-07 | REPBPA [6, 22]: 1.19E+00 | EC10, approx. [6, 23]: ~3.56E-08 | EC10, approx. [6, 24]: ~1.87E-07 | EC10, approx. [6, 25]: ~1.15E-08 | REPBPA [6, 26]: 3.17E+00 | REPBPA [6, 27]: 3.75E+00 | REPBPA [6, 28]: 1.35E+00 | cytotoxicity,median REPBPA,IC10 [7]: 1.93 | IC10,Median (M) [7]: 3.62 × 10^–5 M | IC10, median [7]: 36200 nM

C=CCOc1ccc(S(=O)(=O)c2ccc(O)cc2)cc1 [BPS-MAE, 4-[[4-(Allyloxy)phenyl]sulfonyl]phenol]
PPARγ transactivation reported in the literature [4]: weaker effects | Efficacy % ([5]; ref Pelch et al 2019): 10.30% | cytotoxicity,median REPBPA,IC10 [7]: 0.37 | IC10,Median (M) [7]: 1.90 × 10^–4 M | IC10, median [7]: 190000 nM

O=S(=O)(c1ccc(O)cc1)c1ccc(OCc2ccccc2)cc1 [BPS-MPE, 4-[4-(benzyloxy)benzenesulfonyl]phenol]
PPARγ transactivation reported in the literature [4]: significant PPARγ activation | Efficacy % ([5]; ref Pelch et al 2019): 9.40% | cytotoxicity,median REPBPA,IC10 [7]: 0.62 | IC10,Median (M) [7]: 1.12 × 10^–4 M | IC10, median [7]: 112000 nM

Oc1ccc(Sc2ccc(O)cc2)cc1 [BPT, 4,4'-Thiodiphenol]
REPBPA [1, 9]: 1.69 | SRbaseline [1, 10]: 66.82 | SRbaseline [1, 13]: 35.93 | REPBPA [1, 15]: 8.32E-01 | predicted or literature experimental log Kow ([8]; ref Hansch, 1995): 3.34 | EC10 [3, 16]: 1.43e-06 M | EC10 [3, 19]: 2.66e-06 M | EC10 [3, 15]: 7.19E-08 | cytotoxicity,median REPBPA,IC10 [7]: 0.74 | IC10,Median (M) [7]: 9.51 × 10^–5 M | IC10, median [7]: 95100 nM

O=C(OCc1ccccc1)c1ccc(O)cc1 [BzPB, Benzyl 4-hydroxybenzoate]
predicted or literature experimental log Kow ([8]; ref Lehner 1993): 3.56 | Efficacy % ([5]; ref Pelch et al 2019): 19.70% | cytotoxicity,median REPBPA,IC10 [7]: 0.53 | IC10,Median (M) [7]: 1.32 × 10^–4 M | IC10, median [7]: 132000 nM

CC(C)Oc1ccc(S(=O)(=O)c2ccc(O)cc2)cc1 [D8, 4-((4-Isopropoxyphenyl)sulfonyl)phenol]
PPARγ transactivation reported in the literature [4]: weaker effects | Efficacy % ([5]; ref Pelch et al 2019): 10.30% | cytotoxicity,median REPBPA,IC10 [7]: 0.21

Cc1ccc(S(=O)(=O)NC(=O)Nc2cccc(OS(=O)(=O)c3ccc(C)cc3)c2)cc1 [Pergafast, N-(p-toluenesulfonyl)-N'-(3-(p-toluenesulfonyloxy)phenyl)urea]
PPARγ transactivation reported in the literature [4]: weaker effects | cytotoxicity,median REPBPA,IC10 [7]: 3.67 | IC10,Median (M) [7]: 1.91 × 10^–5 M | IC10, median [7]: 19100 nM

— article PMC12392461, “Beyond Estrogenicity: A Comparative Assessment of Bisphenol A and Its Alternatives in In Vitro Assays Questions Safety of Replacements” (Environmental Science & Technology, 2025)
